Assay results as given in patent US20130065866A1, “DENTINAL DRUG DELIVERY COMPOSITION AND SCREENING METHOD” (UNIVERSITY OF MEDICINE AND DENTISTRY OF NEW JERSEY, priority 2009, published 2013).

Key:
Format in all cases: cell-based, murine
[1] = test system: LPS-evoked NO production in RAW cells; test: Direct effect on NO production in RAW cells; conditions: for reduction of spontaneous NO production: absence of LPS stimulation; for inhibition of LPS-evoked NO production: direct treatment
Excerpt: (§1) After the one or more time intervals (e.g., one or more minutes, hours, or days), the diffusate is collected and tested for activity against an isolated dental pulp cell or isolated population of dental pulp cells. An isolated pulpal cell or population of dental pulp cells refers to cells that are removed from their native environment (i.e., the dental pulp). The isolated cells can be cultured primary cells or cultured cell line and include, but are not limited to fibroblasts, odontoblasts, histiocytes, macrophage, granulocytes, mast cells or plasma cells. Exemplary cell lines include, but are not limited to the murine macrophage cell line, RAW 264.7; immortalized mouse odontoblast cell line, MDPC-23; and the murine fibroblast cell line, 3T3.
(§2) As indicated, in some embodiments it is determined whether the diffusate contains a sufficient amount of test agent to inhibit or decrease the expression or activity of at least one inflammatory mediator of the dental pulp cell. In accordance with this embodiment, the isolated pulpal cell or population of dental pulp cells can be challenged with an inflammation-provoking stimulus (e.g., Lipopolysaccharide (LPS), N-formyl-methionyl-leucyl-phenylalanine, or phorbol myristate acetate) either before or after being contacted with the diffusate, so that the effect of the drug diffusing through the dentin barrier on inflammatory mediator production is assessed.
(§3) Prostaglandins such as PGE2 and nitric oxide (NO) are inflammatory mediators that are generated in injured tissue and influence vascular tissues, nociceptive nerve endings and immune cells. For example, exposure of immune and other cells to bacterial toxins such as LPS evokes production of PGE2 and NO. Other known mediators of inflammation include, but are not limited to, bradykinin, histamine, leukotrienes (Bd, Cd, Dd, Ed) IL-8, and neutrophil and macrophage lysosomal enzymes. The effect of test agents on the expression or activity of one or more of the above-referenced inflammatory mediators can be determined by conventional methods. For example, mRNA expression can be determined by dot blot, northern blot, or reverse transcriptase (RT)-PCR; protein expression can be determined by western blot or ELISA analysis; and NO production can be determined using a Griess reaction assay (e.g., EMSNOTOT kit) or ozone-based chemiluminescence assay.
The direct effect of drugs and lipids on inflammatory mediator production in RAW cells was determined. […] Measurable amounts of NO were produced in the absence of LPS stimulation (˜15 μM).

[2] = test system: LPS-evoked NO production in RAW cells; test: Transdentinal diffusion; diffusate applied to LPS-stimulated RAW cells, NO; conditions: 24 hours of diffusion through dentin; diffusate on RAW cells stimulated with LPS
Method: (§4) This screening method of the invention includes the steps of contacting a coronal surface of an isolated dentin sample with a test agent, incubating the test agent and dentin sample so that diffusate is formed on the pulpal side of the dentin sample, contacting an isolated dental pulp cell with the diffusate, and determining whether the diffusate contains a sufficient amount of test agent to act on a cell of the dental pulp. In one embodiment, it is determined whether the diffusate contains a sufficient amount of test agent to inhibit or decrease the expression or activity of at least one inflammatory mediator of the dental pulp cell (e.g., nociceptive nerve endings, blood vesicle cells or inflammatory cells).
(§5) The dentins sample can be isolated by conventional methods and used in combination with a commercially available two-chamber diffusion cell, wherein the partition separating the two chambers holds the dentin sample (e.g., a dentin disk) in an orientation so that the dentin tubules provide the only connection between the two chambers. See, e.g., Hanks, et al. (1993) J. Dent. Res. 72:931-938; and Puapichartdumrong, et al. (2003) Internatl. Endodont. J. 36:674-81. […]

RAW cells = test: Toxicity to cells in the RAW cell study; conditions: levels used in this study
Method: The direct effect of drugs and lipids on inflammatory mediator production in RAW cells was determined.

[3] = test system: PGE2 production in LPS-stimulated RAW cells; test: Transdentinal diffusion; diffusate applied to LPS-stimulated RAW cells, PGE2; conditions: 24 hours of diffusion through dentin; diffusate on RAW cells stimulated with LPS
Method: as §4, §5

[4] = test system: LPS-evoked PGE2 production in RAW cells; test: Direct effect on LPS-evoked PGE2 production in RAW cells; conditions: direct treatment
Excerpt: as §1, §2
as §3, with “For example, exposure of immune and other cells to bacterial toxins such as LPS evokes production of PGE2 and NO. Other known mediators of inflammation include, but are not limited to, bradykinin, histamine, leukotrienes (Bd, Cd, Dd, Ed) IL-8, and neutrophil and macrophage lysosomal enzymes.” left out, “assay. […]” for “assay.”

## CC/C=C\C/C=C\C/C=C\C/C=C\C/C=C\C/C=C\CCC(=O)O [DHA, docosahexaenoic]
[1]
  reduction of spontaneous NO production: small (not statistically significant) reduction
  inhibition of LPS-evoked NO production: inhibited NO production but to a lesser extent than aspirin

## CC(=O)Oc1ccccc1C(=O)O [aspirin, acetylsalicyclic acid]
[2]
  LPS-evoked NO production after diffusate application: depressed
RAW cells
  toxicity to cells: non-toxic to cells
[3]
  PGE2 production after diffusate application: significantly reduced
[4]; compared to oleic acid
  inhibition of LPS-evoked PGE2 production: effective inhibitors of LPS-evoked PGE2 production
[1]; 0.5 mM and lower (0.05, 0.005, 0.0005 mM)
  reduction of LPS-evoked NO production: did not significantly reduce LPS-evoked NO production
[1]; 5 mM
  reduction of LPS-evoked NO production: significantly reduced NO production
[1]
  reduction of spontaneous NO production: small (not statistically significant) reduction
  inhibition of LPS-evoked NO production: effectively inhibited LPS-evoked NO production

## CC(C)Cc1ccc(C(C)C(=O)O)cc1 (centres unmarked) [ibuprofen]
[2]
  LPS-evoked NO production after diffusate application: did not attenuate LPS-stimulated NO production
[3]
  PGE2 production after diffusate application: significantly reduced
[4]; 50 μM
  inhibition of LPS-evoked PGE2 production: inhibited LPS-evoked PGE2 production
[4]; compared to oleic acid
  inhibition of LPS-evoked PGE2 production: effective inhibitors of LPS-evoked PGE2 production
[1]; 50 μM
  effect on LPS-evoked NO production: no effect on LPS-evoked NO production
[1]
  inhibition of LPS-evoked NO production: did suppress NO production

## CCCCCCCC/C=C\CCCCCCCC(=O)O [oleic acid]
[1]
  inhibition of LPS-evoked NO production: not shared
